What was measured:
[1] = tested on: Muscle bind like protein 1 (MBNL1); assay: MBNL1 quantification in human skeletal muscle cells by TR-FRET (Examples 7, 19); assay type: cell-based; settings: hSkMc, 0.5 mg/mL, as Example 7, versus basal control
Protocol: MBNL1 induction by the peptides of the invention is evaluated by a Time resolved fluorescence resonance energy transfer (TR-FRET) assay. The aim of this study is to investigate the capacity of peptide candidates to increase MBNL1 in human skeletal muscle cells (hSkMc).
(§1) hSkMc (Innoprot) are seeded in 12-well plates at a density of 1.5×10^4 cells/well in Skeletal Muscle Cell Growth Medium (Promocell). After 72 hours incubation, medium is removed and replaced with Skeletal Muscle Cell Differentiation Medium (Promocell). 48 hours after beginning cell differentiation, fresh differentiation medium with 0.5 mg/ml of test items is added. Treatment is continued for 48 hours and non-treated cells are used as basal control. After 48 hours of treatment, cell medium is removed and added cell lysis buffer to wells. Immediately, plates are kept at −80° C. in order to improve protein extraction during the defrosting process. After 72 hours, cells are lysated by shaking the plates in an orbital rotor at room temperature for 45 minutes. Next, cell lysates are collected and assayed to quantify the level of MBNL1 protein and total protein concentration.
(§2) MBNL1 protein levels measurement is performed with Human MBNL1 Assay Kit (Cisbio) according to the manufacturer's protocol. Briefly, the kit is used to perform a TR-FRET for MBNL1 quantification. The protein is detected with the antibodies provided in the kit and quantified by a fluorescence measurement. The quantification is carried out by using a microplate reader (ClarioStar, BMG) set to 665 nm and 620 nm.
(§3) Total protein concentration of cell lysate is determined by using Pierce BCA Protein Assay Kit™ (Thermo Scientific) according to manufacturer's protocol. In brief, after adding Working Reagent to the samples and the standards, the samples are incubated. Afterwards, color change is measured with an absorbance microplate reader (Clariostar™, BMG) at 562 nm. The total protein amount is used to normalize the level of MBNL1 protein concentration obtained by the TR-FRET test in the samples.
Different peptides of the invention are tested as disclosed in Example 7 at 0.5 mg/mL.

[2] = tested on: Muscle bind like protein 1 (MBNL1); assay: MBNL1 quantification by TR-FRET in hSkMc from TEBU-BIO (Example 20); assay type: cell-based, human; settings: 0.5 mg/ml, versus basal control
Protocol: as §1, §2, §3
The assay is performed as disclosed in Example 7 except that hSkMc from TEBU-BIO (Barcelona, Spain) are used. Different peptides of the invention are tested at a concentration of 0.5 mg/ml.

For “Ac-Ala-Asp-Val-Tyr-Lys-NH2 (Ac-ADVYK-NH2) [PEP14]”, the “% MBNL1” value [1] was 145.0%.
With “Ac-Asn-Val-Tyr-Lys-NH2 (Ac-NVYK-NH2) [PEP11]” the “% MBNL1” value [1] was 145.2%.
“Ac-Asp-Val-Tyr-Arg-NH2 (Ac-DVYR-NH2) [PEP10]” was tested, and the “% MBNL1” value [1] was 158.3%.
For “Palm-Asp-Val-Tyr-Lys-NH2 (DVYK; HELM PEPTIDE1{[CCCCCCCCCCCCCCCC(=O)[*:2]].D.V.Y.K.[am]}$$$$V2.0; SMILES CCCCCCCCCCCCCCCC(=O)N[C@@H](CC(=O)O)C(=O)N[C@H](C(=O)N[C@@H](Cc1ccc(O)cc1)C(=O)N[C@@H](CCCCN)C(N)=O)C(C)C) [PEP3]”, the “% MBNL1” value [1] was 127.7%.
“H-Asp-Val-Tyr-Lys-NH2 (H-DVYK-NH2) [PEP5]” was tested, and the “% MBNL1” value [1] was 261.4%.
With “Palm-Glu-Val-Tyr-Lys-NH2 (EVYK; HELM PEPTIDE1{[CCCCCCCCCCCCCCCC(=O)[*:2]].E.V.Y.K.[am]}$$$$V2.0; SMILES CCCCCCCCCCCCCCCC(=O)N[C@@H](CCC(=O)O)C(=O)N[C@H](C(=O)N[C@@H](Cc1ccc(O)cc1)C(=O)N[C@@H](CCCCN)C(N)=O)C(C)C) [PEP13]” the “% MBNL1” value [1] was 147.2%.
For “H-Gly-Ile-Lys-Pro-Asn-Thr-NH2 (H-GIKPNT-NH2) [PEP42]”, the “% MBNL1” value [2] was 114.2%.
With “Ac-Ala-Leu-Lys-Pro-Asn-Thr-OH (Ac-ALKPNT-OH) [PEP27]” the “% MBNL1” value [2] was 126.1%.
For “Ac-Asp-Ile-Tyr-Lys-NH2 (Ac-DIYK-NH2) [PEP8]”, the “% MBNL1” value [1] was 190.4%.
For “H-Ala-Leu-Lys-Val-Asn-Thr-NH2 (H-ALKVNT-NH2) [PEP31]”, the “% MBNL1” value [2] was 120.0%.
For “H-Ala-Ile-Arg-Pro-Asn-Thr-NH2 (H-AIRPNT-NH2) [PEP44]”, the “% MBNL1” value [2] was 240.6%.
“Ac-Glu-Ile-Tyr-Arg-NH2 (Ac-EIYR-NH2) [PEP23]” was tested, and the “% MBNL1” value [1] was 181.4%.
For “H-Leu-Lys-Pro-Asn-Thr-NH2 (H-LKPNT-NH2) [PEP40]”, the “% MBNL1” value [2] was 117.3%.
For “H-Ala-Leu-Lys-Pro-Asn-NH2 (H-ALKPN-NH2) [PEP41]”, the “% MBNL1” value [2] was 138.4%.
In the case of “Ac-Asp-Val-Tyr-Lys-OH (Ac-DVYK-OH) [PEP4]”, the “% MBNL1” value [1] is reported as 378.5%.
In the case of “H-Ala-Leu-Lys-Pro-Gln-Thr-NH2 (H-ALKPQT-NH2) [PEP50]”, the “% MBNL1” value [2] is reported as 119.4%.
In the case of “Ac-Glu-Ile-Phe-Arg-NH2 (Ac-EIFR-NH2) [PEP24]”, the “% MBNL1” value [1] is reported as 117.5%.
“Ac-Glu-Val-Tyr-Lys-NH2 (Ac-EVYK-NH2) [PEP7]” was tested, and the “% MBNL1” value [1] was 141.5%.
For “Ac-Glu-Ile-Tyr-Lys-NH2 (Ac-EIYK-NH2) [PEP20]”, the “% MBNL1” value [1] was 214.2%.
For “Ac-Asp-Val-Phe-Lys-NH2 (Ac-DVFK-NH2) [PEP9]”, the “% MBNL1” value [1] was 134.2%.
With “Ac-Asp-Leu-Tyr-Lys-NH2 (Ac-DLYK-NH2) [PEP12]” the “% MBNL1” value [1] was 154.4%.
With “H-Ala-Leu-Arg-Pro-Asn-Thr-NH2 (H-ALRPNT-NH2) [PEP30]” the “% MBNL1” value [2] was 181.3%.
With “Ac-Asp-Val-Tyr-Lys-Ala-NH2 (Ac-DVYKA-NH2) [PEP15]” the “% MBNL1” value [1] was 145.2%.
“H-Gly-Val-Arg-Pro-Asn-Thr-NH2 (H-GVRPNT-NH2) [PEP46]” was tested, and the “% MBNL1” value [2] was 182.1%.

Source: patent US12419824B2, “Compounds useful for the treatment and/or care of the skin, hair, nails and/or mucous membranes” (Lubrizol Advanced Materials, Inc., priority 2019, dated 2025)
